The source of these data is patent publication US7498341B2, “Heterocyclically substituted 7-amino-4-quinolone-3-carboxylic acid derivatives, process for their preparation and their use as medicaments” (Sanofi Aventis Deutschland GmbH, priority 2004, dated 2009).

The assay deals with T1, human glycogen phosphorylase a (Homo sapiens, UniProt P06737).
T1 sequence (P06737 2-847 limits assumed): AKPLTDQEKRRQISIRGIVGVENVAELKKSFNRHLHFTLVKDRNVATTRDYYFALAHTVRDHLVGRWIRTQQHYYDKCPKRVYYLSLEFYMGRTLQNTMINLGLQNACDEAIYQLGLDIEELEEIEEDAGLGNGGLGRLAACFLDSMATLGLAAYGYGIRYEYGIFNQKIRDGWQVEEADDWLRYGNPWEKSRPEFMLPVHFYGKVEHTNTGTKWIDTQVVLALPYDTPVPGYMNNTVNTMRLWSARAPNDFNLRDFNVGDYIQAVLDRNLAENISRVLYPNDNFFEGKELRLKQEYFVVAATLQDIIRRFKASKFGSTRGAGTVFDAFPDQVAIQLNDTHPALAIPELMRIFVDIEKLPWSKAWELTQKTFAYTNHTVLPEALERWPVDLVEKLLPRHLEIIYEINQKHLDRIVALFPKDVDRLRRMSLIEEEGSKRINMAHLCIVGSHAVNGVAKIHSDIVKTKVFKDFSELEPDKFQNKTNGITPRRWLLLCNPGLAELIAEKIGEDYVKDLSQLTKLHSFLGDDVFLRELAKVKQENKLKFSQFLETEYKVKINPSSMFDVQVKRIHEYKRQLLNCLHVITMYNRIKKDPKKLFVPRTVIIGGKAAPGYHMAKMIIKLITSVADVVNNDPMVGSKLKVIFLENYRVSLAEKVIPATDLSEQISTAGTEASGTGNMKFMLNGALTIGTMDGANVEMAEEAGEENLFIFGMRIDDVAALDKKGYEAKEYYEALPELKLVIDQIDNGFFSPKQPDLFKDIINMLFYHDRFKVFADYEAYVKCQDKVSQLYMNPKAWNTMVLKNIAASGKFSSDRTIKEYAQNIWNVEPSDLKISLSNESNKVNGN
Briefly: Glycogen phosphorylase a activity assay (reverse direction, liberation of inorganic phosphate). The assay is classed as biochemical. The following applies: 10 μM test substance; in vitro inhibition of glycogen phosphorylase a.

Procedure: Glycogen phosphorylase a Activity Assay
All the reactions were carried out as duplicate determinations in microtiter plates with 96 wells (Half Area Plates, Costar No 3696), measuring the change in absorption owing to the formation of the reaction product at the wavelength specified hereinafter in a Multiskan Ascent Elisa Reader (Lab Systems, Finland).
In order to measure the GPa enzymic activity in the reverse direction, the general method of Engers et al. (Engers H D, Shechosky S, Madsen N B, Can J Biochem 1970 July; 48(7):746-754) was used to measure the conversion of glucose 1-phosphate into glycogen and inorganic phosphate, with the following modifications: human glycogen phosphorylase a (for example with 0.76 mg of protein/ml (Aventis Pharma Deutschland GmbH), dissolved in buffer solution E (25 mM β-glycerophosphate, pH 7.0, 1 mM EDTA and 1 mM dithiothreitol) was diluted with buffer T (50 mM Hepes, pH 7.0, 100 mM KCl, 2.5 mM EDTA, 2.5 mM MgCl2.6H2O) and addition of 5 mg/ml glycogen to a concentration of 10 μg of protein/ml. […] The baseline glycogen phosphorylase a activity in the absence of test substance was determined by adding 10 μl of buffer solution T (0.1% DMSO). […] After incubation at 45° C. for 60 minutes, the absorption at 820 nm was measured. […]

What is called % inhibition is the relative decrease from the control value, in per cent. For `Cc1ccc(C)n1Nc1cc2c(=O)c(C(=O)O)cn(Cc3ccccc3)c2cc1Cl` [Example 42, 1-Benzyl-7-chloro-6-(2,5-dimethylpyrrol-1-ylamino)-4-oxo-1,4-dihydroquinolone-3-carboxylic acid], the “% inhibition at 10 μM” value was determined as 101%. For `CCn1cc(C(=O)OCOC(=O)C(C)(C)C)c(=O)c2cc(Nn3c(C)ccc3C)c(Cl)cc21` [Example 53, 2,2-Dimethylpropionyloxymethyl 7-chloro-6-(2,5-dimethylpyrrol-1-ylamino)-1-ethyl-4-oxo-1,4-dihydroquinolone-3-carboxylate] the value was 93%.
